Reference: ChEMBL document CHEMBL1126527, “Insight into the catalytic mechanism of KDO8P synthase. Synthesis and evaluation of the isosteric phosphonate mimic of the putative cyclic intermediate” (Bioorg Med Chem Lett, 1993)

Assay: Inhibition of homogeneous KDO 8-P synthase of Escherichia coli was determined from Dixon Plot

Work on O=C(O)C1(OP(=O)(O)O)CC(O)C(O)C([C@H](O)COP(=O)(O)O)O1 (stereo partly specified) yielded a Ki of 4.9 µM.
